Assay: Valia-Chien diffusion cell, trans-membrane diffusion of RhoB
Assay type: in vitro ADME
Text: A Valia-Chien cell apparatus separated by an artificial barrier membrane was used to compare the in vitro drug delivery kinetics of the small molecule Rhodamine B delivered via P407 and saline solution, both with and without perforations. The applied methods for measuring trans-membrane diffusion were adapted from the American Association of Pharmaceutical Scientists as well as the Federal Drug Administration recommendations for in vitro percutaneous absorption rate studies (EPA, Recommended Protocol For In Vitro Percutaneous Absorption Rate Studies, Federal Register Notices, 61(65):14773-14778, 1996. Agency Docket: OPPTS-42186A.)
P407 powder (Spectrum Chemical, Gardena, CA) was mixed with demineralized water and RhoB to create a 0.1 mM RhoB solution in 18% P407 by weight. The resulting mixture was stirred at room temperature and kept overnight in a refrigerator at 3 to 4° C. to facilitate dissolution of the P407 powder. At the chosen P407 concentration, the mixture transitioned into gel upon placement within the room-temperature testing apparatus.
Diffusion of RhoB through an artificial membrane barrier was performed using 9 mm clear unjacketed Valia-Chien diffusion cells (PermeGear Inc., Hellertown, PA) with 5 mL volumes and flat-ground joints. […] The Valia-Chien diffusion cells 800 were arranged horizontally, mitigating the effects of gravity on particle movement and allowing for active stirring of both the donor 810 and receptor compartments 820 by magnetic mini-stirrers 840 (HI 190M-1, Hanna Instruments, Woonsocket, RI). A 3D-printed adapter 850 was used as a conduit between the chambers 810, 820.
The donor chamber 810 was filled with 5.0 mL volumes of: (A) 0.1 mM RhoB in PBS or (B) 0.1 mM RhoB in 18% P407. An additional sample of donor solution was reserved for the calibration of fluorescence detection, as detailed below. Active stirring of the donor chamber 810 was performed for experiments utilizing PBS, but not those utilizing gelified P407. Initial filling of the donor chamber marked time zero for each experiment.
The receptor chamber 820 was filled with 5.0 mL of PBS prepared by dissolving 9.6 g of Dulbecco's Phosphate Buffered Saline powder (Sigma-Aldrich) in 1.0 L deionized water. An Eppendorf micropipette was used to withdraw 75 μL of fluid from the receptor chamber every 15 minutes, from 0 min to 165 min, for a total of 12 samples. The collected samples were placed in individual wells of a 96-well plate for further analysis. The withdrawn solution was replaced with 75 μL of PBS to prevent advection of fluid within the system. […] Active stirring of the receptor chamber 820 was performed for all experiments.
Whatman™ Grade 2 Qualitative Filter Paper with diameter 5.5 cm, thickness 190 μm and pore size 8.0 μm (Whatman Limited, England) was used as an artificial membrane 830 barrier separating the donor and receptor chambers. […] Using an artificial barrier controlled for pore size as well as membrane thickness. The filter paper was cut to fit a custom 3D-printed diffusion cell adapter, which was circumferentially sealed with general-purpose epoxy. Teflon tape was used to prevent leakage between the 3D-printed adapter and the joint, which were secured with a standard Valia-Chien cell clamp. The filter paper was equilibrated in PBS solution for 30 min prior to any contact with donor substance. […]

Compound: CCN(CC)c1ccc2c(-c3ccccc3C(=O)O)c3ccc(=[N+](CC)CC)cc-3oc2c1.[Cl-] [RhoB, Rhodamine B]
- permeance (RhoB in P407, membrane with one 200 μm perforation): 3.0×10^−7 m s^−1
- permeance (RhoB in P407, unperforated artificial membrane): 2.2×10^−7 m s^−1
- permeance (RhoB in PBS, unperforated artificial membrane): 3.04×10^−6 m s^−1
- diffusion rate in P407 relative to saline (times lower) (after the initial burst release): more than 10 times
- increase in measured permeance (saline as solvent, membranes with up to four 100 μm perforations vs unperforated): 1.5 fold

Reference: US12263066B2, “Apparatuses, systems and methods for perforating and aspirating inner ear” (priority 2018, dated 2025)
